This is an account of results in ChEMBL document CHEMBL4049381 (Medchemcomm, 2016).

Series [1] deals with T1, Solute carrier organic anion transporter family member 2B1 (Homo sapiens, UniProt O94956, R607A). In words: Drug uptake assessed as human OATP2B1 R607A mutant expressed in Xenopus laevis oocyte mediated drug accumulation at 0.003 uM after 30 mins by LC-MS/MS method relative to wild type protein. The format is ADME. As to conditions: 0.5 h.
The target of series [2] is T2, Solute carrier organic anion transporter family member 2B1 (Homo sapiens, UniProt O94956, H618Q). In words: Drug uptake assessed as human OATP2B1 H618Q mutant expressed in Xenopus laevis oocyte mediated drug accumulation at 0.003 uM after 30 mins by LC-MS/MS method relative to wild type protein. The format is ADME. As to conditions: 0.5 h.
T2 sequence (O94956 whole entry T392I/H618Q): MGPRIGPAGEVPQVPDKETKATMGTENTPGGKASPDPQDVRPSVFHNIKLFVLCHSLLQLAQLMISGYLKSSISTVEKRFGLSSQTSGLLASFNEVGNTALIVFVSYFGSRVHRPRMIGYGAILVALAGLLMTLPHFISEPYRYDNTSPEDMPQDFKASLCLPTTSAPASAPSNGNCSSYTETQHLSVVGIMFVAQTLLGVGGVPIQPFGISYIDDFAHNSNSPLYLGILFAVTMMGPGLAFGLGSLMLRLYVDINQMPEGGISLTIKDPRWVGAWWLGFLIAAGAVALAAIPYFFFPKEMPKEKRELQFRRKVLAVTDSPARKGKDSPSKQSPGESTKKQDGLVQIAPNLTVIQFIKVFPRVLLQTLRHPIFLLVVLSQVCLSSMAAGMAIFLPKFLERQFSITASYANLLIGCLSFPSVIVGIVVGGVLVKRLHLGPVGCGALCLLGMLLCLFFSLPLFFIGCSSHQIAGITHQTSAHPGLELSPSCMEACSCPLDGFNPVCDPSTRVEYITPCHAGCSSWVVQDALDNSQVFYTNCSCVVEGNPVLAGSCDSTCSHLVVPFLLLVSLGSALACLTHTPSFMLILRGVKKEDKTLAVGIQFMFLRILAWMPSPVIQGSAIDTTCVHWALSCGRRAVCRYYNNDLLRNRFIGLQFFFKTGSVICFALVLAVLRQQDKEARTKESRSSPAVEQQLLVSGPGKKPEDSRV
The target in series [3] is T3, Solute carrier organic anion transporter family member 2B1 (Homo sapiens, UniProt O94956).
T3 sequence (O94956 whole entry): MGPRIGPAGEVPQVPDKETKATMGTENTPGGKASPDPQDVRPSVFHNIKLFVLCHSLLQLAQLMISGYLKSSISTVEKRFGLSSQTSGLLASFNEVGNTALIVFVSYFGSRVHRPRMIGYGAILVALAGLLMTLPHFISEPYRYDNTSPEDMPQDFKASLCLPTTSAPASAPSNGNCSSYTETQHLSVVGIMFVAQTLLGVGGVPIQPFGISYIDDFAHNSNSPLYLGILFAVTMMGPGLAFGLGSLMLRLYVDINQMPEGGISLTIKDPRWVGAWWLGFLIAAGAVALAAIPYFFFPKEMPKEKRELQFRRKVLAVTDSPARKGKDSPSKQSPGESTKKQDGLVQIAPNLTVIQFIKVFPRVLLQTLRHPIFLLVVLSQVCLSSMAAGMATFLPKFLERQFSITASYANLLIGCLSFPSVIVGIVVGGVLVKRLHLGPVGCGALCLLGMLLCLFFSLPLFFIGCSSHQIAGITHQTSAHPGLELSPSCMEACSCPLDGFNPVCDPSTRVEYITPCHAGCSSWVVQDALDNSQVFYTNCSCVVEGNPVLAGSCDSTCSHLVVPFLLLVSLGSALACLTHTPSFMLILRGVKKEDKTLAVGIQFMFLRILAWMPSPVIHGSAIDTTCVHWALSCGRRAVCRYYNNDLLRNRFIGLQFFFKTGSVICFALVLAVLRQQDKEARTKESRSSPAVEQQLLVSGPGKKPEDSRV
Nature of the series: Drug uptake assessed as human OATP2B1 expressed in Xenopus laevis oocyte mediated drug accumulation per 30 mins per oocyte at 0.003 uM by LC-MS/MS method. The class given is ADME. As to conditions: 0.5 h.

In series [4] the target is T4, Solute carrier organic anion transporter family member 2B1 (Homo sapiens, UniProt O94956, H579Q). Nature of the series: Drug uptake assessed as human OATP2B1 H579Q mutant expressed in Xenopus laevis oocyte mediated drug accumulation at 0.003 uM after 30 mins by LC-MS/MS method relative to wild type protein. The class given is ADME. As to conditions: 0.5 h.
T4 sequence (O94956 whole entry T392I/H579Q): as the sequence (O94956 whole entry T392I/H618Q) above, with H579Q, Q618H counted along it
Series [5] addresses T4, Solute carrier organic anion transporter family member 2B1. Nature of the series: Drug uptake assessed as human OATP2B1 H579Q mutant expressed in Xenopus laevis oocyte mediated drug accumulation at 1 uM after 120 mins by LC-MS/MS method relative to wild type protein. The class given is ADME. As to conditions: 2 h.
The target of series [6] is T1, Solute carrier organic anion transporter family member 2B1. Nature of the series: Drug uptake assessed as human OATP2B1 R607A mutant expressed in Xenopus laevis oocyte mediated drug accumulation at 1 uM after 120 mins by LC-MS/MS method relative to wild type protein. The format is ADME. As to conditions: 2 h.
Series [7] addresses T2, Solute carrier organic anion transporter family member 2B1. In words: Drug uptake assessed as human OATP2B1 H618Q mutant expressed in Xenopus laevis oocytes mediated drug accumulation at 1 uM after 120 mins by LC-MS/MS method relative to wild type protein. The format is ADME, cell-based. As to conditions: 2 h.
The target in series [8] is T3, Solute carrier organic anion transporter family member 2B1. In words: Drug uptake assessed as human OATP2B1 expressed in Xenopus laevis oocyte mediated drug accumulation per 120 mins per oocyte at 1 uM by LC-MS/MS method. The format is ADME. As to conditions: 2 h.
For series [9] the target is unchanged. Nature of the series: Drug uptake assessed as human OATP2B1 expressed in Xenopus laevis oocyte mediated drug accumulation per 180 mins per oocyte at 1 uM by LC-MS/MS method. The class given is ADME. Particulars: 3 h.
Series [10] addresses T2, Solute carrier organic anion transporter family member 2B1. In words: Drug uptake assessed as human OATP2B1 H618Q mutant expressed in Xenopus laevis oocyte mediated drug accumulation at 1 uM after 180 mins by LC-MS/MS method relative to wild type protein. The format is ADME. As to conditions: 3 h.
Series [11] addresses T1, Solute carrier organic anion transporter family member 2B1. Nature of the series: Drug uptake assessed as human OATP2B1 R607A mutant expressed in Xenopus laevis oocyte mediated drug accumulation at 1 uM after 180 mins by LC-MS/MS method relative to wild type protein. The format is ADME. Particulars: 3 h.
Series [12] addresses T4, Solute carrier organic anion transporter family member 2B1. Nature of the series: Drug uptake assessed as human OATP2B1 H579Q mutant expressed in Xenopus laevis oocyte mediated drug accumulation at 1 uM after 180 mins by LC-MS/MS method relative to wild type protein. The format is ADME. As to conditions: 3 h.
Series [13] relates to C[C@]12CC[C@@H]3c4ccc(OS(=O)(=O)O)cc4CC[C@H]3[C@@H]1CCC2=O. Nature of the series: Substrate activity at human OATP2B1 H579Q mutant high affinity site expressed in Xenopus laevis oocytes assessed as Km for transporter-mediated drug accumulation after 15 mins by Eadie-Hofstee plot method. The class given is ADME, cell-based.
The test system is the same in series [14]. In words: Substrate activity at human OATP2B1 H618Q mutant high affinity site expressed in Xenopus laevis oocytes assessed as Km for transporter-mediated drug accumulation after 15 mins by Eadie-Hofstee plot method. The format is ADME, cell-based.
Series [15] shares this test system. Nature of the series: Substrate activity at human OATP2B1 H618Q mutant low affinity site expressed in Xenopus laevis oocytes assessed as Km for transporter-mediated drug accumulation after 15 mins by Eadie-Hofstee plot method. The class given is ADME, cell-based.
Substrate in series [16]: C[C@]12CC[C@@H]3c4ccc(OS(=O)(=O)O)cc4CC[C@H]3[C@@H]1CCC2=O
Nature of the series: Substrate activity at human OATP2B1 high affinity site expressed in Xenopus laevis oocytes assessed as Km for transporter-mediated drug accumulation after 15 mins by Eadie-Hofstee plot method. The class given is ADME, cell-based.

Substrate in series [17]: CC[C@H](C)C(=O)O[C@H]1C[C@H](O)C=C2C=C[C@H](C)[C@H](CC[C@@H](O)C[C@@H](O)CC(=O)O)[C@H]21
In words: (§1) Drug uptake assessed as OATP2B1 high affinity site (unknown origin)-mediated drug uptake. The format is ADME, Homo sapiens.

Substrate in series [18]: O=C(O)c1cc(/N=N/c2ccc(S(=O)(=O)Nc3ccccn3)cc2)ccc1O
The series is described as §1. The format is ADME, Homo sapiens.

Substrate in series [19]: C[C@]12CC[C@@H]3c4ccc(OS(=O)(=O)O)cc4CC[C@H]3[C@@H]1CCC2=O
Described as §1. The class given is ADME, Homo sapiens.

Substrate in series [20]: CC[C@H](C)C(=O)O[C@H]1C[C@H](O)C=C2C=C[C@H](C)[C@H](CC[C@@H](O)C[C@@H](O)CC(=O)O)[C@H]21
Nature of the series: (§2) Drug uptake assessed as OATP2B1 low affinity site (unknown origin)-mediated drug uptake. The class given is ADME, Homo sapiens.

Substrate in series [21]: C[C@]12CC[C@@H]3c4ccc(OS(=O)(=O)O)cc4CC[C@H]3[C@@H]1CCC2=O
The series is described as §2. The format is ADME, Homo sapiens.

Substrate in series [22]: C[C@]12CC[C@@H]3c4ccc(OS(=O)(=O)O)cc4CC[C@H]3[C@@H]1CCC2=O
In words: Substrate activity at human OATP2B1 low affinity site expressed in Xenopus laevis oocytes assessed as Km for transporter-mediated drug accumulation after 15 mins by Eadie-Hofstee plot method. The class given is ADME, cell-based.

T1 sequence (O94956 whole entry T392I/R607A): as the sequence (O94956 whole entry T392I/H618Q) above, with R607A, Q618H counted along it

For `CCCCC[C@H](O)/C=C/[C@H]1[C@H](O)CC(=O)[C@@H]1C/C=C\CCCC(=O)O` [DINOPROSTONE], the Drug uptake was 45.3% in series [1], 97.4% in [2], 0.461 µL in series [3] and 138% in series [4].
Turning to `CC(C)(C(=O)O)c1ccc(C(O)CCCN2CCC(C(O)(c3ccccc3)c3ccccc3)CC2)cc1` (stereo not given) [FEXOFENADINE], the Drug uptake in [5] stood at 147%; in series [6], 28.5%; in series [7], 121%; in [8] it was 0.056 µL.
`CC[C@H](C)C(=O)O[C@H]1C[C@H](O)C=C2C=C[C@H](C)[C@H](CC[C@@H](O)C[C@@H](O)CC(=O)O)[C@H]21` [PRAVASTATIN]: the Drug uptake amounted to 0.196 µL in [9], 40% in [10], 0.2% in [11] and 32.5% in [12].
For `CC(C)c1nc(N(C)S(C)(=O)=O)nc(-c2ccc(F)cc2)c1/C=C/[C@@H](O)C[C@@H](O)CC(=O)O` [ROSUVASTATIN], the Drug uptake in series [5] was 39.8%; in [6], 5.79%; in series [7], 33.1%; in series [8], 2.951 µL.
For `O=C(O)c1cc(/N=N/c2ccc(S(=O)(=O)Nc3ccccn3)cc2)ccc1O` [SULFASALAZINE], in that order: 41%, 7.57%, 22.2% and 1.934 µL.
Regarding “Solute carrier organic anion transporter family member 2B1 (Homo sapiens; H579Q)”, in series [13], the Michaelis-Menten constant (Km) worked out at 0.18 µM.
For “Solute carrier organic anion transporter family member 2B1 (Homo sapiens; H618Q)”, the Km in series [14] amounted to 0.149 µM; in series [15], 91.1 µM.

B1: Solute carrier organic anion transporter family member 2B1 (Homo sapiens) (protein)
chain: T3 sequence (O94956 whole entry)
B1: the Km in series [16] stood at 0.463 µM; in [17] it was 6.25 µM; in [18] it was 1.73 µM; in series [19], 0.1 µM; in series [20] it was 225 µM; in series [21] it was 29.9 µM. Moreover, the Km in series [22] turned out to be 51.4 µM.
